# Assay results from patent US12318401B2, “Injectable shear-thinning hydrogel containing therapeutic agent for enhanced tumor therapy” (MAYO FOUNDATION FOR MEDICAL EDUCATION AND RESEARCH, priority 2021, dated 2025).
# System: B16F10 melanoma tumor cells
# Assay: In vivo anti-cancer efficacy in melanoma tumor model
# Design: species or system C57B1/6J mice
# Details: subcutaneous B16F10 melanoma in mice
# Method: Finally, in vivo anti-cancer efficacy of DOX-STB was analyzed in a melanoma tumor model made by subcutaneous injection of B16F10 melanoma tumor cells into C57B1/6J mice (FIG. 7A).
smiles,measurement,value
"COc1cccc2c1C(=O)c1c(O)c3c(c(O)c1C2=O)C[C@@](O)(C(=O)CO)C[C@@H]3O[C@H]1C[C@H](N)[C@H](O)[C@H](C)O1 [DOX, doxorubicin]",tumor size in gross,tumor size decreased
